Tests used:
Assay in all cases: combination Emax (second highest fraction inhibited in the dose matrix, 72 h); higher = more inhibition; extreme values may be limits of the assay
CHP-212 (Neuroblastoma) = test system: CHP-212 (Neuroblastoma)
Procedure, shortened: (§1)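 Cell lines grown in DMEM/F12 or RPMI with 10% FBS were plated in 1536-well plates and held 24 hours at 37°C, 5% CO2 before 72 hours of exposure to two-drug dose matrices, with DMSO typically at 0.2%. CellTiter-Glo 2.0 luminescence gave viability, which was converted to inhibition. Vehicle wells were set to 0 and blank wells to 1. Combination Emax is the second-highest inhibition in the matrix, and Bliss excess is the observed combination effect minus the expected EA + EB − EA·EB, where EA and EB are the single-agent effects.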

[1] = test system: DiFi (Colorectal Carcinoma)
Procedure, shortened: as §1

ES1 (Ewing's Sarcoma) = test system: ES1 (Ewing's Sarcoma)
Procedure, shortened: as §1

ES8 (Ewing's Sarcoma) = test system: ES8 (Ewing's Sarcoma)
Procedure, shortened: as §1

[2] = test system: GR-ST (B-Lymphoblastic Leukemia)
Procedure, shortened: as §1

[3] = test system: HDQ-P1 (Breast Carcinoma)
Procedure, shortened: as §1

[4] = test system: HL-60 (Acute Myeloid Leukemia)
Procedure, shortened: as §1

[5] = test system: K-562 (Chronic Myelogenous Leukemia)
Procedure, shortened: as §1

[6] = test system: KARPAS-45 (T-Lymphoblastic Leukemia)
Procedure, shortened: as §1

[7] = test system: KM12 (Colorectal Carcinoma)
Procedure, shortened: as §1

[8] = test system: L-540 (Hodgkin's Lymphoma)
Procedure, shortened: as §1

[9] = test system: MFM-223 (Breast Carcinoma)
Procedure, shortened: as §1

[10] = test system: MOLT-16 (T-Lymphoblastic Leukemia)
Procedure, shortened: as §1

[11] = test system: SR (Other Blood Carcinomas)
Procedure, shortened: as §1

[12] = test system: SU-DHL-8 (B-Cell Non-Hodgkin's Lymphoma)
Procedure, shortened: as §1

[13] = test system: SW1417 (Colorectal Carcinoma)
Procedure, shortened: as §1

[14] = test system: TE-6 (Esophageal Squamous Cell Carcinoma)
Procedure, shortened: as §1

[15] = test system: TOV-112D (Ovarian Carcinoma)
Procedure, shortened: as §1

WIL2-NS (Non-Cancerous) = test system: WIL2-NS (Non-Cancerous)
Procedure, shortened: as §1

Structure (SMILES)	combination Emax (CHP-212 (Neuroblastoma))	combination Emax [1]	combination Emax (ES1 (Ewing's Sarcoma))	combination Emax (ES8 (Ewing's Sarcoma))	combination Emax [2]	combination Emax [3]	combination Emax [4]	combination Emax [5]	combination Emax [6]	combination Emax [7]	combination Emax [8]	combination Emax [9]	combination Emax [10]	combination Emax [11]	combination Emax [12]	combination Emax [13]	combination Emax [14]	combination Emax [15]	combination Emax (WIL2-NS (Non-Cancerous))
COc1cccc(OCCCN)c1-c1cc(Nc2cnc(C#N)cn2)n[nH]1 [Prexasertib] + O=C(c1cc(Cc2n[nH]c(=O)c3ccccc23)ccc1F)N1CCN(C(=O)C2CC2)CC1 [Olaparib] (first compound max 1 µM, 7x7, partner max 10 µM)	0.756	0.924	1	0.906	0.808	0.702	0.961	0.891	0.979	0.756	0.975	0.703	1	0.996	0.943	0.614	0.476	0.796	1
CN(C)CCCOc1ccc(-c2ccc3ncc4c(c3c2)n(C2CCOCC2)c(=O)n4C)cn1 [AZD0156] + CCN(CCO)CCCOc1ccc2c(Nc3cc(CC(=O)Nc4cccc(F)c4)[nH]n3)ncnc2c1 [AZD2811] (first compound max 1 µM, 7x7, partner max 1 µM)	0.803	0.416	0.69	1	0.276	0.211	0.832	0.23	0.919	0.0745	0.366	0.168	1	0.849	0.253	0.104	0.236	0.35	0.201
CCc1c2c(nc3ccc(O)cc13)-c1cc3c(c(=O)n1C2)COC(=O)[C@]3(O)CC [SN-38] + CN(C)CCCOc1ccc(-c2ccc3ncc4c(c3c2)n(C2CCOCC2)c(=O)n4C)cn1 [AZD0156] (first compound max 0.3 µM, 7x7, partner max 1 µM)	0.747	0.669	1	0.984	0.749	0.702	0.968	0.752	0.305	0.716	0.951	0.243	1	0.994	0.992	0.662	0.313	0.965	1
COc1cccc(OCCCN)c1-c1cc(Nc2cnc(C#N)cn2)n[nH]1 [Prexasertib] + Cc1cc2ncnn2cc1Nc1ncc2c(n1)n(C1CCOCC1)c(=O)n2C [AZD7648] (first compound max 1 µM, 7x7, partner max 10 µM)	0.814	0.864	1	0.842	0.806	0.612	0.961	0.948	0.981	0.796	0.962	0.763	1	1	0.968	0.667	0.554	0.711	1
CN(C)CCCOc1ccc(-c2ccc3ncc4c(c3c2)n(C2CCOCC2)c(=O)n4C)cn1 [AZD0156] + C=CCn1c(=O)c2cnc(Nc3ccc(N4CCN(C)CC4)cc3)nc2n1-c1cccc(C(C)(C)O)n1 [AZD1775] (first compound max 1 µM, partner max 1 µM)	0.831	0.637	0.682	0.646	0.78	0.469	0.387	0.715	0.854	0.731	0.954	0.653	1	0.99	0.888	0.407	0.232	0.475	0.976
Cc1cc2ncnn2cc1Nc1ncc2c(n1)n(C1CCOCC1)c(=O)n2C [AZD7648] + CCN(CCO)CCCOc1ccc2c(Nc3cc(CC(=O)Nc4cccc(F)c4)[nH]n3)ncnc2c1 [AZD2811] (first compound max 10 µM, 7x7, partner max 1 µM)	0.693	0.584	0.724	1	0.466	0.423	0.865	0.202	0.931	0.261	0.504	0.298	1	0.86	0.245	0.313	0.313	0.458	0.215
COc1cc2c(cc1OCCCCCOc1cc3c(cc1OC)C(=O)N1C=C(C)C[C@H]1C=N3)N=C[C@@H]1CC(C)=CN1C2=O [SG3199] + O=C(c1cc(Cc2n[nH]c(=O)c3ccccc23)ccc1F)N1CCN(C(=O)C2CC2)CC1 [Olaparib] (first compound max 0.001 µM, 7x7, partner max 10 µM)	0.384	0.107	0.689	0.828	0.359	0.153	0.133	0.134	0.0966	0.113	0.32	0.128	0.659	0.445	0.55	0.0642	0.117	0.269	0.247
Cc1cc2ncnn2cc1Nc1ncc2c(n1)n(C1CCOCC1)c(=O)n2C [AZD7648] + C[C@@H]1COCCN1C2=NC(=NC(=C2)C3(CC3)[S@](=N)(=O)C)C4=C5C=CNC5=NC=C4 [AZD6738] (first compound max 10 µM, 7x7, partner max 10 µM)	0.776	0.842	0.913	0.798	0.743	0.468	0.834	0.892	0.74	0.636	0.951	0.832	1	0.924	0.899	0.491	0.553	0.685	0.979
COc1cccc(OCCCN)c1-c1cc(Nc2cnc(C#N)cn2)n[nH]1 [Prexasertib] + C=CCn1c(=O)c2cnc(Nc3ccc(N4CCN(C)CC4)cc3)nc2n1-c1cccc(C(C)(C)O)n1 [AZD1775] (first compound max 1 µM, partner max 1 µM)	0.811	0.92	1	0.945	0.82	0.856	0.97	0.98	1	0.862	0.967	0.897	1	1	0.964	0.64	0.767	0.815	1
Cc1cc2ncnn2cc1Nc1ncc2c(n1)n(C1CCOCC1)c(=O)n2C [AZD7648] + O=C(c1cc(Cc2n[nH]c(=O)c3ccccc23)ccc1F)N1CCN(C(=O)C2CC2)CC1 [Olaparib] (first compound max 10 µM, 7x7, partner max 10 µM)	0.529	0.258	0.686	0.814	0.472	0.41	0.228	0.176	0.177	0.21	0.396	0.172	0.633	0.514	0.448	0.165	0.328	0.353	0.461
COc1cccc(OCCCN)c1-c1cc(Nc2cnc(C#N)cn2)n[nH]1 [Prexasertib] + C[C@@H]1COCCN1C2=NC(=NC(=C2)C3(CC3)[S@](=N)(=O)C)C4=C5C=CNC5=NC=C4 [AZD6738] (first compound max 1 µM, 7x7, partner max 10 µM)	0.788	0.881	1	0.798	0.829	0.597	0.971	0.985	0.979	0.767	0.963	0.814	1	1	0.964	0.629	0.695	0.796	1
CCc1c2c(nc3ccc(O)cc13)-c1cc3c(c(=O)n1C2)COC(=O)[C@]3(O)CC [SN-38] + O=C(c1cc(Cc2n[nH]c(=O)c3ccccc23)ccc1F)N1CCN(C(=O)C2CC2)CC1 [Olaparib] (first compound max 0.3 µM, 7x7, partner max 10 µM)	–	0.701	1	0.989	0.74	0.702	–	0.672	–	0.681	0.965	0.257	–	0.982	–	0.694	–	0.965	1
COc1cccc(OCCCN)c1-c1cc(Nc2cnc(C#N)cn2)n[nH]1 [Prexasertib] + CN(C)CCCOc1ccc(-c2ccc3ncc4c(c3c2)n(C2CCOCC2)c(=O)n4C)cn1 [AZD0156] (first compound max 1 µM, 7x7, partner max 1 µM)	0.782	0.878	1	0.837	0.822	0.538	0.956	0.979	0.971	0.775	0.968	0.74	1	1	0.964	0.619	0.567	0.614	1
CCN(CCO)CCCOc1ccc2c(Nc3cc(CC(=O)Nc4cccc(F)c4)[nH]n3)ncnc2c1 [AZD2811] + C=CCn1c(=O)c2cnc(Nc3ccc(N4CCN(C)CC4)cc3)nc2n1-c1cccc(C(C)(C)O)n1 [AZD1775] (first compound max 1 µM, partner max 1 µM)	0.843	0.671	0.779	1	0.789	0.522	0.845	0.811	0.936	0.705	0.916	0.56	1	0.991	0.929	0.412	0.236	0.712	0.944

From the supplement of paper PMC11061612
